Reference: US20200377485A1, “HYDANTOIN MODULATORS OF KV3 CHANNELS” (AUTIFONY THERAPEUTICS LIMITED, priority 2015, published 2020)

Legend:
[1] = target: T1, human Kv3.2 channels (hKv3.2) (Homo sapiens, UniProt Q96PR1); experiment: IonWorks Quattro electrophysiology, hKv3.2 stable CHO-K1 cell line (potentiation; secondary analysis of activation time Tauact); assay type: cell-based; conditions: -15 mV depolarising step; concentration chosen to give ~0.3 nA at end of pulse: RE1 6.25, RE3 0.2, RE9 0.2, Example 1 0.8 μM; vehicle 7.1 ms
T1 construct: expressed in transfected cells
T1 sequence (Q96PR1 1-638): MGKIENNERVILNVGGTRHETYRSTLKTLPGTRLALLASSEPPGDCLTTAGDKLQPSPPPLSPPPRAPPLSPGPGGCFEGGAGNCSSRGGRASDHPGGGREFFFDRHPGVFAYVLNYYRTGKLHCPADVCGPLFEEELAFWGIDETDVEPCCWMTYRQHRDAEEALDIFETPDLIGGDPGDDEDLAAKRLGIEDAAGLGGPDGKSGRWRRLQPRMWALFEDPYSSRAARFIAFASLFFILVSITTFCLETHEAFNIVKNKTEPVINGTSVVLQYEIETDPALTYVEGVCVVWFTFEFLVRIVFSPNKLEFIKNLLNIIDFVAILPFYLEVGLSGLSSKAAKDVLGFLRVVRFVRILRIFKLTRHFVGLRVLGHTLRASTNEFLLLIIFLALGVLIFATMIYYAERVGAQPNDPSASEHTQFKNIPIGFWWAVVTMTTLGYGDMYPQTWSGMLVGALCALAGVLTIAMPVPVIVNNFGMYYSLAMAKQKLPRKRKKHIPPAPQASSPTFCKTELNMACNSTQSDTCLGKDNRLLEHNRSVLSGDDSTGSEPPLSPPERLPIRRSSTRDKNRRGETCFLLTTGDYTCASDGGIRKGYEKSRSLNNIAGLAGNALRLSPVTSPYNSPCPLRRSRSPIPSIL
Method: The ability of the compounds of the invention to modulate the voltage-gated potassium channel subtypes Kv3.2 or Kv3.1 may be determined using the following assay.
To assess compound effects on human Kv3.2 channels (hKv3.2), a stable cell line expressing hKv3.2 was created by transfecting Chinese Hamster Ovary (CHO)-K1 cells with a pClH5-hKv3.2 vector. Cells were cultured in DMEM/F12 medium supplemented by 10% Foetal Bovine Serum, lx non-essential amino acids (Invitrogen) and 500 ug/ml of Hygromycin-B (Invitrogen). Cells were grown and maintained at 37° C. in a humidified environment containing 5% CO2 in air.
The day of the experiment, cells were removed from the incubator and the culture medium removed. Cells were washed with 5 ml of Dulbecco's PBS (DPBS) calcium and magnesium free and detached by the addition of 3 ml Versene (Invitrogen, Italy) followed by a brief incubation at 37° C. for 5 minutes. The flask was tapped to dislodge cells and 10 ml of DPBS containing calcium and magnesium was added to prepare a cell suspension. The cell suspension was then placed into a 15 ml centrifuge tube and centrifuged for 2 min at 1200 rpm. […]
Experiments were conducted at room temperature using IonWorks Quattro™ planar array electrophysiology technology (Molecular Devices Corp.) with PatchPlate™ PPC. […] Planar electrode hole resistances (Rp) were determined by applying a 10 mV voltage step across each well. […] Test pulses protocol may be performed in the absence (pre-read) and presence (post-read) of the test compound. Pre- and post-reads may be separated by the compound addition followed by a 3 minute incubation. […]
The recordings were analysed and filtered using both seal resistance (>20 MΩ) and peak current amplitude (>500 pA at the voltage step of 40 mV) in the absence of compound to eliminate unsuitable cells from further analysis. Paired comparisons between pre- and post-drug additions measured for the −15 mV voltage step were used to determine the positive modulation effect of each compound. […]

[2] = test system: rat model of persistent inflammatory pain; experiment: Persistent inflammatory pain model, intraplantar Freund's Complete Adjuvant, paw withdrawal threshold to mechanical force; assay type: in vivo
Method: (§1) Subjects comprised male, Wistar Hanover rats, 6 animals per group (225±2 g).
(§2) Vehicle (12% Captisol®; 0.5% w/v HPMC and 0.1% w/v Tween-80; 5 ml/kg via the intraperitoneal route) was prepared using autoclaved deionized water not more than one week prior to use.
(§3) The control for the neuropathic pain model was lamotrigine, administered at 30 mg/kg via oral delivery. The control for the inflammatory pain model was diclofenac, administered at 30 mg/kg via oral delivery. Statistical analysis was performed using one-way ANOVA, and comparisons were performed with time-matched vehicle group using Tukey's HSD test wherein * p<0.05, ** p<0.01, *** p<0.001.
Mechanical hyperalgesia was examined in a model of persistent inflammatory pain. […]
To assess the effect of the test compound, paw withdrawal thresholds were measured on both the ipsilateral (FCA-injected) and contralateral (non-injected) paws, prior to (naïve) and 24 h following FCA injection (predose), and then at 1, 3, 6 and 24 h after drug or vehicle administration.
Mechanical hyperalgesia was examined in a model of neuropathic pain by measuring paw withdrawal thresholds (PWT) to increasing mechanical force applied to the dorsal surface of the rat paw using an Analgesymeter (Ugo-Basile, Milan) equipped with a wedge-shaped probe (area 1.75 mm^2). […] Both ipsilateral and contralateral paw withdrawal readings were taken. […]

[3] = test system: rat model of neuropathic pain; experiment: Neuropathic pain model, partial ligation of the sciatic nerve, paw withdrawal threshold to mechanical force; assay type: in vivo
Method: as §1, §2
as §3, with “p<0.001. […]” for “p<0.001.”
Withdrawal thresholds were measured on both the ipsilateral (ligated) and contralateral (non-ligated) paws, prior to (predose) and then up to 24 h following drug or vehicle administration.
Pre-dose behavioural measurements were obtained by measuring paw withdrawals 14 days following nerve ligation; before the initiation of drug treatment. Following treatment, further readings were taken at 1, 3, 6 and 24 hour after administration. […]
Data were expressed as withdrawal threshold (g) and percentage reversals calculated according to the following formula: […]
Statistical analysis was carried out on withdrawal threshold readings using ANOVA with repeated measures followed by Tukey's HSD test. […]

[4] = General observations of behaviour during the pain studies; assay type: in vivo, rat; conditions: acute administration, 10-60 mg/kg i.p., neuropathic and inflammatory pain models
Source text: In addition to behavioural pain readings, each rat was observed throughout the study for changes in general behaviour.

CC[C@H]1NC(=O)N(c2ccc(Oc3ccc(C)c(OC)c3)nc2)C1=O [RE1, (5R)-5-ethyl-3-(6-{[4-methyl-3-(methyloxy)phenyl]oxy}-3-pyridinyl)-2,4-imidazolidinedione]
Tauact mean (activation time constant of hKv3.2 current) [1]: 9.9 ms

O=C(O)Cc1ccccc1Nc1c(Cl)cccc1Cl [diclofenac]
peak reversal of mechanical sensitivity (positive control) ([2]; 30 mg/kg oral, 1 h post-dose): 64%

CC[C@H]1NC(=O)N(c2ccc(Oc3ccc(C#N)cc3C(C)(C)C)nc2)C1=O [RE3, 3-(1,1-dimethylethyl)-4-({5-[(4R)-4-ethyl-2,5-dioxo-1-imidazolidinyl]-2-pyridinyl}oxy)benzonitrile]
Tauact mean (activation time constant of hKv3.2 current) [1]: 23.0 ms

Cc1ccc(Oc2ncc(N3C(=O)NC(C)(C)C3=O)cn2)c2c1OCC21CC1 [Compound X, 5,5-dimethyl-3-[2-(7-methylspiro[2H-benzofuran-3,1-cyclopropane]-4-yl)oxypyrimidin-5-yl]imidazolidine-2,4-dione]
reversal of mechanical sensitivity, in words ([3]; 10, 30, 60 mg/kg i.p.): dose-related reversal of mechanical sensitivity with rapid onset and long duration of action
reversal of mechanical sensitivity, in words ([2]; 10, 30, 60 mg/kg i.p.): dose-related reversal of mechanical sensitivity with rapid onset of action
changes in normal (general) behaviour [4]: without causing significant changes in normal behaviour

CC[C@@]1(C)NC(=O)N(c2ccc(Oc3ccc(C)c4c3C3(CC3)CO4)cn2)C1=O [Example 1, (5R)-5-ethyl-5-methyl-3-[5-(7-methylspiro[2H-benzofuran-3,1′-cyclopropane]-4-yl)oxy-2-pyridyl]imidazolidine-2,4-dione]
Tauact mean (activation time constant of hKv3.2 current) [1]: 18.2 ms

Nc1nnc(-c2cccc(Cl)c2Cl)c(N)n1 [lamotrigine]
peak reversal of mechanical sensitivity (positive control) ([3]; 30 mg/kg oral, 3 h post-dose): 67%
